Reference: patent publication US20250368666A1, “INDAZOLE COMPOUNDS” (TYRA BIOSCIENCES, INC., priority 2022, published 2025)

Legend:
FGFR1 = target: T1, FGFR1 (Homo sapiens, UniProt P11362); assay: Kinase binding assay (kinase-tagged T7 phage, affinity beads, qPCR), Kd; details: read-out: FGFR1 (Kd nM)
T1 construct: made in house; host or cells: E. coli (BL21-derived), T7 phage
In short: (§1)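 Readout was qPCR of kinase eluted from ligand-coated affinity beads after competition with test compound. Kinases were expressed as T7 phage fusions in E. coli. Binding constants were derived by non-linear least-squares Hill fitting, Hill slope −1.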

FGFR2 = target: T2, FGFR2 (Homo sapiens, UniProt P21802); assay: as above; details: read-out: FGFR2 (Kd nM)
T2 construct: made in house; host or cells: E. coli (BL21-derived), T7 phage
T2 sequence (P21802 22-821): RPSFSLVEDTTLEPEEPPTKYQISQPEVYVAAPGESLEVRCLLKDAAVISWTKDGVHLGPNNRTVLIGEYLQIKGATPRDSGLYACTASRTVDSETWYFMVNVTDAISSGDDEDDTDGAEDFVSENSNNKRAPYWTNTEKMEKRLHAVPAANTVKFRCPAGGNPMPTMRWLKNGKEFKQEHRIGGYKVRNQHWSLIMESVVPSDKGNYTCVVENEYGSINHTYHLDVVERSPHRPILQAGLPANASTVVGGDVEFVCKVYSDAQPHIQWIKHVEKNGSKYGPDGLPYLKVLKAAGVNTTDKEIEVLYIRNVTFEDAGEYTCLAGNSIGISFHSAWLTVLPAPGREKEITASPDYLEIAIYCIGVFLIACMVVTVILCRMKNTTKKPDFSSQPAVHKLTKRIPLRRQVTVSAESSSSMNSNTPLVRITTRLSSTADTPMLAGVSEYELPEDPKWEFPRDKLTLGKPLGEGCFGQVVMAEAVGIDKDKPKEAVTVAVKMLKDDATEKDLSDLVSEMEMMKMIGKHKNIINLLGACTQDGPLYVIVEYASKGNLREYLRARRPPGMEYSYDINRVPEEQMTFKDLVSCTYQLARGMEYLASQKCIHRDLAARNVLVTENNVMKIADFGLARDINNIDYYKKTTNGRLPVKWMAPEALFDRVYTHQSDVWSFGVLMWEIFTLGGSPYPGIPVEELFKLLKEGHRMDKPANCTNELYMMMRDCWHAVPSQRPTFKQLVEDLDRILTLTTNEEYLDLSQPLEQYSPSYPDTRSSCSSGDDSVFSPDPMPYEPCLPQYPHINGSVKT
In short: as §1

FGFR3 = target: T3, FGFR3 (Homo sapiens, UniProt P22607); assay: as above; details: read-out: FGFR3 (Kd nM)
T3 construct: made in house; host or cells: E. coli (BL21-derived), T7 phage
T3 sequence (P22607 23-806): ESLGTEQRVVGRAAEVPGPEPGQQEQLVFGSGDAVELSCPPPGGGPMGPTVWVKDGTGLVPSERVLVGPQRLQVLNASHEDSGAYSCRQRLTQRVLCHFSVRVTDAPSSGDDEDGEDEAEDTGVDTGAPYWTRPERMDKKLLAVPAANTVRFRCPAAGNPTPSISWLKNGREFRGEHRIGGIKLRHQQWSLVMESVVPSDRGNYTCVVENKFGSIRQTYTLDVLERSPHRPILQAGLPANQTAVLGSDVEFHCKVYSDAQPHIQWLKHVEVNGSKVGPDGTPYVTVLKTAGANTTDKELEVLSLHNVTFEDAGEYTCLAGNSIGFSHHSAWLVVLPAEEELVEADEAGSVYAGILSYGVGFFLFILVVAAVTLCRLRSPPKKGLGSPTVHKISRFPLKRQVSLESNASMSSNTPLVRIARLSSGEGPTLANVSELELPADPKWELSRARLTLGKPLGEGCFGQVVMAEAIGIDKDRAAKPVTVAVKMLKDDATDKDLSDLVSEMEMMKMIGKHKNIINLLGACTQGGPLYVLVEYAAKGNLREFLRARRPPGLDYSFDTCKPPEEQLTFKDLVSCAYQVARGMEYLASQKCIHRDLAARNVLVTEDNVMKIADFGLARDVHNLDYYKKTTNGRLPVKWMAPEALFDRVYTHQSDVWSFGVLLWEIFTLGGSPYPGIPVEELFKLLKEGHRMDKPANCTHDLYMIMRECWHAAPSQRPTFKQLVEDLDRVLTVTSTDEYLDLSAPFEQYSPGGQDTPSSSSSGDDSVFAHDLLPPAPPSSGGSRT
In short: as §1

FGFR3 (V555M) = target: T4, FGFR3 (V555M) (Homo sapiens, UniProt P22607, V555M); assay: as above; details: V555M mutant; read-out: FGFR3 (V555M) (Kd nM)
T4 construct: made in house; host or cells: E. coli (BL21-derived), T7 phage
T4 sequence (P22607 23-806 V555M): as the sequence (P22607 23-806) above, with V533M counted along it
In short: as §1

FGFR4 = target: T5, FGFR4 (Homo sapiens, UniProt P22455); assay: as above; details: read-out: FGFR4 (Kd nM)
T5 construct: made in house; host or cells: E. coli (BL21-derived), T7 phage
T5 sequence (P22455 22-802): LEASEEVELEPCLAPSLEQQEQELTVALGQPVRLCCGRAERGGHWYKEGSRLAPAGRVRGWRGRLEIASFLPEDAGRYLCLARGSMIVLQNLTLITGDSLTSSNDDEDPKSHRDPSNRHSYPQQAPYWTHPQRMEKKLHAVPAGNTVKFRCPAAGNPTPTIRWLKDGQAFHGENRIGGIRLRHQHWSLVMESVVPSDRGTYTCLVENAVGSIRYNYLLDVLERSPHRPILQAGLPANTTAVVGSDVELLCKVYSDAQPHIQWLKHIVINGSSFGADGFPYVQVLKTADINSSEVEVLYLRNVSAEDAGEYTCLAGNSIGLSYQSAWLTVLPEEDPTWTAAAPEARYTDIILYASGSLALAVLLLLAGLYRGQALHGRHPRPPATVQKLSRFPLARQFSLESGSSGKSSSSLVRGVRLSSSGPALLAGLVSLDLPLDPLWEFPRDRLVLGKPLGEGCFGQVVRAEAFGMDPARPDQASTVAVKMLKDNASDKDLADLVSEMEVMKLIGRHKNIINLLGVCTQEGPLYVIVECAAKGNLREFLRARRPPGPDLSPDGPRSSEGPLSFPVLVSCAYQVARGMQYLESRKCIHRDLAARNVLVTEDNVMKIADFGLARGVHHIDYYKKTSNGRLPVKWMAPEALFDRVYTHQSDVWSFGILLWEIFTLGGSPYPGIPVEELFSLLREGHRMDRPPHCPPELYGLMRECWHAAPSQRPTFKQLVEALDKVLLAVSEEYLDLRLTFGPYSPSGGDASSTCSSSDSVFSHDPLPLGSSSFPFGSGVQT
In short: as §1

[1] = system: KATO-III cell line (FGFR2 amplification); assay: Cancer cell line cell viability assay (Cell Titer-Glo), 72 hr; assay type: cell-based; details: Homo sapiens, KATO III
In short: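 Cells seeded at 5,000-20,000/well, incubated overnight, then treated with a 9-dose, 4-fold dilution series from 3 μM in triplicate at 37° C, 5% CO2. Viability read by Cell Titer-Glo 2.0 luminescence as percent of DMSO control; IC50 from 4-parameter variable-slope sigmoidal fit.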

[2] = system: KG-1 cell line (FGFR 1-fusion); assay: as above; assay type: cell-based; details: Homo sapiens, KG-1, KG-1 cell line (FGFR1-fusion)
In short: (§2)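 Following overnight attachment, each line receives compound in triplicate across nine 4-fold dilutions starting at 3 μM, with DMSO backfill for equal solvent. Luminescence after Cell Titer-Glo 2.0 addition gives percent viability versus DMSO control, fitted by 4-parameter logistic for IC50.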

[3] = system: RT112/84 cell line (FGFR3-fusion); assay: as above; assay type: cell-based; details: Homo sapiens, RT112/84, RT112/84 cell line (FGFR3-fusion)
In short: as §2

[4] = system: MDA-MB-453 cell line (FGFR4-Y367C); assay: Cancer cell line cell viability assay (Cell Titer-Glo), 120 hr; assay type: cell-based; details: Homo sapiens
In short: as §2

T1 sequence (P11362 22-822): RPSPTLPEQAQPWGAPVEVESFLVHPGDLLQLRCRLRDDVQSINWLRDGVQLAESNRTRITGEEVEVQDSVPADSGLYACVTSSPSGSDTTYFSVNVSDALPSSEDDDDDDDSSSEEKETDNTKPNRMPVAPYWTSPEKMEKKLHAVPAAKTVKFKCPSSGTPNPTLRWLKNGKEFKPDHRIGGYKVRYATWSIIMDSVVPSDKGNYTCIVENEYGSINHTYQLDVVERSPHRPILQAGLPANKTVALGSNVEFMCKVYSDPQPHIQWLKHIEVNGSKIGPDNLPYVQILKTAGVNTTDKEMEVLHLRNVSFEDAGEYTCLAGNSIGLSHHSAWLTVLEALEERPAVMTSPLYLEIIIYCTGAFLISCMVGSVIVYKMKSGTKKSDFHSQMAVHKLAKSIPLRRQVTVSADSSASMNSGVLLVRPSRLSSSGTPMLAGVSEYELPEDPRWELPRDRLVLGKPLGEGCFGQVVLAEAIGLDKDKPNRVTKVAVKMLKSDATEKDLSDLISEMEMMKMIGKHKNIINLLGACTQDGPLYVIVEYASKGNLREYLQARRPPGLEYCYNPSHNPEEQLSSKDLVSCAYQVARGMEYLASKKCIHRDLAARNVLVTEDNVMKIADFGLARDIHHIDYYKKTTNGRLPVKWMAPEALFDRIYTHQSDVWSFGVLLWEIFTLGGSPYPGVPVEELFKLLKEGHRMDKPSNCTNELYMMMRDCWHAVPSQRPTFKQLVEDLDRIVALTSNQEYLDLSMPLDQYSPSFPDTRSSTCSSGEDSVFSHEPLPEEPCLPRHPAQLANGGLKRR

SMILES | Kd (FGFR1) [nM] | Kd (FGFR2) [nM] | Kd (FGFR3) [nM] | Kd (FGFR3 (V555M)) [nM] | Kd (FGFR4) [nM] | IC50 [1] [nM] | IC50 [2] [nM] | IC50 [3] [nM] | IC50 [4] [nM]
CNC1(C)CN(c2ccc(-c3n[nH]c4ccc(O[C@H](C)c5c(Cl)cnc(C)c5Cl)cc34)cn2)C1 [Example 76, 1-[5-[5-[(1R)-1-(3,5-dichloro-2-methyl-4-pyridyl)ethoxy]-1H-indazol-3-yl]-2-pyridyl]-N,3-dimethyl-azetidin-3-amine] | 1 to 50 | 1 to 50 | 1 to 50 | 1 to 50 | 1 to 50 | 50 to 200 | 50 to 200 | 0.1 to 50 | 200 to 1000
Cc1ncc(Cl)c([C@@H](C)Oc2ccc3[nH]nc(-c4ccc(N5CC(C)(N6CCOCC6)C5)nc4)c3c2)c1Cl [Example 77, 4-[1-[5-[5-[(1R)-1-(3,5-dichloro-2-methyl-4-pyridyl)ethoxy]-1H-indazol-3-yl]-2-pyridyl]-3-methyl-azetidin-3-yl]morpholine] | 1 to 50 | 1 to 50 | 1 to 50 | 1 to 50 | 1 to 50 | 50 to 200 | 200 to 1000 | 0.1 to 50 | 200 to 1000
Cc1ncc(Cl)c([C@@H](C)Oc2ccc3[nH]nc(-c4ccc(N5CC(C)(N(C)C)C5)nc4)c3c2)c1Cl [Example 78, 1-[5-[5-[(1R)-1-(3,5-dichloro-2-methyl-4-pyridyl)ethoxy]-1H-indazol-3-yl]-2-pyridyl]-N,N,3-trimethyl-azetidin-3-amine] | 1 to 50 | 1 to 50 | 1 to 50 | 1 to 50 | 1 to 50 | 50 to 200 | 200 to 1000 | 0.1 to 50 | 200 to 1000
COc1cc2[nH]nc(-c3ccc(N4CC(C)(NCCO)C4)nc3)c2cc1O[C@H](C)c1c(Cl)cncc1Cl [Example 83, (R)-2-((1-(5-(5-(1-(3,5-dichloropyridin-4-yl)ethoxy)-6-methoxy-1H-indazol-3-yl)pyridin-2-yl)-3-methylazetidin-3-yl)amino)ethan-1-ol] | 1 to 50 | 1 to 50 | 1 to 50 | 1 to 50 | 1 to 50 | 0.1 to 50 | 50 to 200 | 0.1 to 50 | 0.1 to 50
C[C@@H](Oc1ccc2[nH]nc(-c3cnc(N4CC(C)(N5CCS(=O)(=O)CC5)C4)c(F)c3)c2c1)c1c(Cl)cncc1Cl [Example 167, 4-[1-[5-[5-[(1R)-1-(3,5-dichloro-4-pyridyl)ethoxy]-1H-indazol-3-yl]-3-fluoro-2-pyridyl]-3-methyl-azetidin-3-yl]-1,4-thiazinane 1,1-dioxide] | 1 to 50 | 1 to 50 | 1 to 50 | 1 to 50 | 1 to 50 | 0.1 to 50 | 50 to 200 | 0.1 to 50 | 0.1 to 50
C[C@@H](Oc1ccc2[nH]nc(-c3cnc(N4CC(N)(Cc5ccn(C)n5)C4)c(F)c3)c2c1)c1c(Cl)cncc1Cl [Example 282, (R)-1-(5-(5-(1-(3,5-dichloropyridin-4-yl)ethoxy)-1H-indazol-3-yl)-3-fluoropyridin-2-yl)-3-((1-methyl-1H-pyrazol-3-yl)methyl)azetidin-3-amine] | 1 to 50 |  | 1 to 50 |  |  | 50 to 200 | 50 to 200 | 0.1 to 50 | 50 to 200
C[C@@H](Oc1ccc2[nH]nc(-c3cnc(N4CC(N)(Cc5ccnn5C)C4)c(F)c3)c2c1)c1c(Cl)cncc1Cl [Example 283, (R)-1-(5-(5-(1-(3,5-dichloropyridin-4-yl)ethoxy)-1H-indazol-3-yl)-3-fluoropyridin-2-yl)-3-((1-methyl-1H-pyrazol-5-yl)methyl)azetidin-3-amine] | 1 to 50 |  | 1 to 50 |  |  | 0.1 to 50 | 0.1 to 50 | 0.1 to 50 | 0.1 to 50
C[C@@H](Oc1ccc2[nH]nc(-c3ccc(N4CC(N)(CCC#N)C4)nn3)c2c1)c1c(Cl)cncc1Cl [Example 285, (R)-3-(3-amino-1-(6-(5-(1-(3,5-dichloropyridin-4-yl)ethoxy)-1H-indazol-3-yl)pyridazin-3-yl)azetidin-3-yl)propanenitrile] | 1 to 50 |  | 1 to 50 |  |  | 0.1 to 50 | 0.1 to 50 | 0.1 to 50 | 200 to 1000
C[C@@H](Oc1ccc2[nH]nc(-c3ccc(N4CC(N)(Cc5cnn(C)c5)C4)nn3)c2c1)c1c(Cl)cncc1Cl [Example 289, (R)-1-(6-(5-(1-(3,5-dichloropyridin-4-yl)ethoxy)-1H-indazol-3-yl)pyridazin-3-yl)-3-((1-methyl-1H-pyrazol-4-yl)methyl)azetidin-3-amine] | 1 to 50 |  | 1 to 50 |  |  | 50 to 200 | 200 to 1000 | 0.1 to 50 | 200 to 1000

The remaining lines, values ahead:

Kd (FGFR1) [nM] | Kd (FGFR2) [nM] | Kd (FGFR3) [nM] | Kd (FGFR3 (V555M)) [nM] | Kd (FGFR4) [nM] | IC50 [1] [nM] | IC50 [2] [nM] | IC50 [3] [nM] | IC50 [4] [nM] | SMILES
1 to 50 | 1 to 50 | 1 to 50 | 1 to 50 | 1 to 50 | 0.1 to 50 | 50 to 200 | 0.1 to 50 | 50 to 200 | C[C@@H](Oc1ccc2[nH]nc(-c3cnc(N4CC(C)(NC(=O)CN(C)C)C4)c(F)c3)c2c1)c1c(Cl)cncc1Cl (stereo in doubt) [Example 156, N-(1-(5-(5-(1-(3,5-dichloropyridin-4-yl)ethoxy)-1H-indazol-3-yl)-3-fluoropyridin-2-yl)-3-methylazetidin-3-yl)-2-(dimethylamino)-acetamide]
1 to 50 | 1 to 50 | 1 to 50 | 1 to 50 | 1 to 50 | 50 to 200 | 50 to 200 | 0.1 to 50 | 50 to 200 | C[C@@H](Oc1ccc2[nH]nc(-c3cnc(N4CC(C)(NCC5CC5)C4)c(F)c3)c2c1)c1c(Cl)cncc1Cl [Example 106, (R)-N-(cyclopropylmethyl)-1-(5-(5-(1-(3,5-dichloropyridin-4-yl)ethoxy)-1H-indazol-3-yl)-3-fluoropyridin-2-yl)-3-methylazetidin-3-amine]
1 to 50 | 1 to 50 | 1 to 50 | 1 to 50 | 1 to 50 | 0.1 to 50 | 50 to 200 | 0.1 to 50 | 50 to 200 | CC(C)CNC1(C)CN(c2ncc(-c3n[nH]c4ccc(O[C@H](C)c5c(Cl)cncc5Cl)cc34)cc2F)C1 [Example 138, 1-[5-[5-[(1R)-1-(3,5-dichloro-4-pyridyl)ethoxy]-1H-indazol-3-yl]-3-fluoro-2-pyridyl]-N-isobutyl-3-methyl-azetidin-3-amine]
1 to 50 | 1 to 50 | 1 to 50 | 1 to 50 | 1 to 50 | 0.1 to 50 | 50 to 200 | 0.1 to 50 | 50 to 200 | C[C@@H](Oc1ccc2[nH]nc(-c3cnc(N4CC(C)(NCC(F)F)C4)c(F)c3)c2c1)c1c(Cl)cncc1Cl [Example 155, 1-[5-[5-[(1R)-1-(3,5-dichloro-4-pyridyl)ethoxy]-1H-indazol-3-yl]-3-fluoro-2-pyridyl]-N-(2,2-difluoroethyl)-3-methyl-azetidin-3-amine]
1 to 50 | 1 to 50 | 1 to 50 | 1 to 50 | 1 to 50 | 0.1 to 50 | 50 to 200 | 0.1 to 50 | 0.1 to 50 | C[C@@H](Oc1ccc2[nH]nc(-c3cnc(N4CC(C)(NCCS(C)(=O)=O)C4)c(F)c3)c2c1)c1c(Cl)cncc1Cl [Example 166, (R)-1-(5-(5-(1-(3,5-Dichloropyridin-4-yl)ethoxy)-1H-indazol-3-yl)-3-fluoropyridin-2-yl)-3-methyl-N-(2-(methylsulfonyl)ethyl)azetidin-3-amine]
1 to 50 |  | 1 to 50 |  |  | 0.1 to 50 | 50 to 200 | 0.1 to 50 | 0.1 to 50 | C[C@@H](Oc1ccc2[nH]nc(-c3cnc(N4CC(N)(CCF)C4)c(F)c3)c2c1)c1c(Cl)cncc1Cl [Example 284, (R)-1-(5-(5-(1-(3,5-dichloropyridin-4-yl)ethoxy)-1H-indazol-3-yl)-3-fluoropyridin-2-yl)-3-(2-fluoroethyl)azetidin-3-amine]
1 to 50 |  | 1 to 50 |  |  | 50 to 200 | 50 to 200 | 0.1 to 50 | 50 to 200 | C[C@@H](Oc1ccc2[nH]nc(-c3cnc(N4CC(N)(Cc5cnn(C)c5)C4)c(F)c3)c2c1)c1c(Cl)cncc1Cl [Example 290, (R)-1-(5-(5-(1-(3,5-dichloropyridin-4-yl)ethoxy)-1H-indazol-3-yl)-3-fluoropyridin-2-yl)-3-((1-methyl-1H-pyrazol-4-yl)methyl)azetidin-3-amine]
